{"source": "paper PMC6358866", "about": "(International Journal of Molecular Sciences, 2019)", "key": {"[1]": {"system": "Staphylococus aureus ATCC 6538 biofilm on CLs", "assay": "Lipopeptide, lens liquids and combinations against biofilms on CLs after withdrawal of the antimicrobial solution", "type": "cell-based, Staphylococcus aureus", "settings": "SA biofilm on CLs, lipopeptide in PBS, after withdrawal and 24 h in MHB II", "procedure": "(§1) Bacterial strains were obtained from the Polish Collection of Microorganisms (Polish Academy of Science, Wroclaw, Poland). Three Gram-positive and two Gram-negative strains linked with CL-related infections were chosen for the study (Staphylococus aureus ATCC 6538, Staphylococcus epidermidis ATCC 14990, Pseudomonas aeruginosa ATCC 9027, Escherichia coli ATCC 25922, and Enterococcus faecalis ATCC 29212). The bacteria were cultured in a Mueller Hinton Broth II (MHB, Biocorp, Warsaw, Poland) overnight, under aerobic conditions at 37 °C. After incubation, the liquid cultures were centrifuged (2500 rpm for 10 min) and washed with phosphoric buffer (PBS, AppliChem, Darmstadt, Germany) three times and resuspended in fresh MHB II for inoculums appropriate for the performed assays.\nBacterial biofilms were cultured on commercially available CLs (1-Day Acuvue Moist, containing Etafilcon A, obtained from Johnson and Johnson Vision Care, Jacksonsville, FL, USA). […] After incubation, resazurin was added (final concentration per sample = 0.01%) and absorbance was measured as in the assays 4.3 and 4.4. […]\nThe assay was also performed for the samples where biofilms on CLs were exposed to pure CL solutions. […] The results were read, calculated, and presented as in the previously-described sections."}, "[2]": {"system": "human cells (keratinocytes, erythrocytes)", "settings": "cited from earlier work", "from_the_text": "PA was also the most difficult strain to eliminate from the surface of CL in the previous study, in which we investigated amphibian peptides and short lipopeptides containing hexadecanoic acid according to their potential application as CL solution additives. The results of performed antimicrobial assays were also very promising. However, due to high toxicity towards human keratinocytes in vitro, the ocular applications of lipopeptides with hexadecanoic acid are not worth further consideration. In contrast to those lipopeptides, the compound with two residues of decanoic aci ... || The excellent antimicrobial activity was previously reported for many lipopeptides. This, along with the relatively low production costs, has encouraged many research groups to study their antimicrobial activities and design molecules with optimal properties. C16-KK-NH2 is one of such extensively studied compounds. […] Other derivatives ..."}, "[3]": {"system": "Staphylococus aureus ATCC 6538 biofilm on CLs", "assay": "Activity of lipopeptide and CL liquids against biofilms formed on contact lenses", "type": "cell-based, Staphylococcus aureus", "settings": "SA biofilm on CLs, lipopeptide in PBS, 24 h, resazurin", "procedure": "as §1\nBacterial biofilms were cultured on commercially available CLs (1-Day Acuvue Moist, containing Etafilcon A, obtained from Johnson and Johnson Vision Care, Jacksonsville, FL, USA). The CLs were placed in polystyrene 24-well plates (Orange Scientific, Braine-l’Alleud, Belgium) in bacterial suspensions in MHB II at initial inoculums of ca. 5 × 10^8 CFU/mL. After 24 h of incubation (aerobic conditions, 120 rpm shaking, 37 °C), all of the CLs were rinsed three times with PBS. […] After incubation, resazurin was added (final concentration per sample = 0.01%) and absorbance was measured as in the assays 4.3 and 4.4. […]"}, "[4]": {"system": "Staphylococcus epidermidis ATCC 14990 biofilm on CLs", "assay": "Lipopeptide, lens liquids and combinations against biofilms on CLs after withdrawal of the antimicrobial solution", "type": "cell-based", "settings": "SE biofilm on CLs, lipopeptide in PBS, after withdrawal and 24 h in MHB II", "procedure": "as §1\n(§2) Bacterial biofilms were cultured on commercially available CLs (1-Day Acuvue Moist, containing Etafilcon A, obtained from Johnson and Johnson Vision Care, Jacksonsville, FL, USA). The CLs were placed in polystyrene 24-well plates (Orange Scientific, Braine-l’Alleud, Belgium) in bacterial suspensions in MHB II at initial inoculums of ca. 5 × 10^8 CFU/mL. After 24 h of incubation (aerobic conditions, 120 rpm shaking, 37 °C), all of the CLs were rinsed three times with PBS. […] After incubation, resazurin was added (final concentration per sample = 0.01%) and absorbance was measured as in the assays 4.3 and 4.4. Positive controls contained CLs with bacterial biofilms placed in pure PBS, while sterile CLs incubated in MHB II replaced with PBS served as negative controls. The experiments were performed in triplicate on three different days.\n(§3) The assay was also performed for the samples where biofilms on CLs were exposed to pure CL solutions. Positive controls (100%) were biofilms on CLs in PBS, while negative controls were CLs previously incubated in pure MHB II replaced for the exposure time with PBS. After 24 h of exposure (aerobic conditions, 120 rpm shaking, 37 °C) all the solutions were removed, replaced with MHB II and the samples were incubated for another 24 h. Resazurin was then added in order to visualize the results. The results were read, calculated, and presented as in the previously-described sections."}, "[5]": {"system": "Pseudomonas aeruginosa ATCC 9027 biofilm on CLs", "assay": "Lipopeptide, lens liquids and combinations against biofilms on CLs after withdrawal of the antimicrobial solution", "type": "cell-based", "settings": "PA biofilm on CLs, all tested concentrations, after withdrawal and 24 h in MHB II", "procedure": "as §1, §2, §3"}, "[6]": {"system": "Escherichia coli ATCC 25922 biofilm on CLs", "assay": "Lipopeptide, lens liquids and combinations against biofilms on CLs after withdrawal of the antimicrobial solution", "type": "cell-based", "settings": "EC biofilm on CLs, all tested concentrations, after withdrawal and 24 h in MHB II", "procedure": "as §1, §2, §3"}, "[7]": {"system": "Enterococcus faecalis ATCC 29212 biofilm on CLs", "assay": "Lipopeptide, lens liquids and combinations against biofilms on CLs after withdrawal of the antimicrobial solution", "type": "cell-based", "settings": "EF biofilm on CLs, after withdrawal and 24 h in MHB II", "procedure": "as §1, §2, §3"}, "[8]": {"system": "Staphylococus aureus ATCC 6538 biofilm", "assay": "Activity against biofilms formed on polystyrene 96-well plates, 24 h exposure, resazurin", "type": "cell-based, Staphylococcus aureus", "procedure": "(§4) Bacterial strains were obtained from the Polish Collection of Microorganisms (Polish Academy of Science, Wroclaw, Poland). […] The bacteria were cultured in a Mueller Hinton Broth II (MHB, Biocorp, Warsaw, Poland) overnight, under aerobic conditions at 37 °C. After incubation, the liquid cultures were centrifuged (2500 rpm for 10 min) and washed with phosphoric buffer (PBS, AppliChem, Darmstadt, Germany) three times and resuspended in fresh MHB II for inoculums appropriate for the performed assays.\n(§5) Bacterial suspensions were added to 96-well plates (Kartell, Noviglio, Italy) at initial inoculums of ca. 5 × 10^8 CFU/mL and incubated under aerobic conditions with shaking (120 rpm) at 37 °C for 24 h. […] After exposure, the wells were washed three times with PBS and a solution of resazurin (Sigma Aldrich, St. Louis, MO, USA) in MHB II (0.01%) was added. This cell viability reagent is metabolized by bacterial dehydrogenases upon contact with living cells. As a result, the blue dye is reduced to a pink resorufin. After 1.5 h of incubation, the absorbance was measured at 570 and 600 nm using a microplate reader (Thermo Fisher Scientific, Waltham, MA, USA). […] The metabolic activity of bacteria in the samples was measured according to the following formula:\n(§6) Metabolic activity (%) = (ΔAbs of sample − ΔAbs of negative control)/(ΔAbs of positive control − ΔAbs of negative control);\n(§7) ΔAbs = absorbance at 570 nm − absorbance at 600 nm;\n(§8) The presented results are the means of nine results obtained on three different days."}, "[9]": {"system": "Staphylococcus epidermidis ATCC 14990 biofilm", "assay": "Activity against biofilms formed on polystyrene 96-well plates, 24 h exposure, resazurin", "type": "cell-based", "settings": "polystyrene plate, 24 h exposure in MHB II, resazurin", "procedure": "as §4, §5, §6, §7, §8"}, "[10]": {"system": "Enterococcus faecalis ATCC 29212 biofilm", "assay": "Activity against biofilms formed on polystyrene 96-well plates, 24 h exposure, resazurin", "type": "cell-based", "settings": "polystyrene plate, 24 h exposure in MHB II", "procedure": "as §4, §5, §6, §7, §8"}, "[11]": {"system": "Escherichia coli ATCC 25922 biofilm", "assay": "Activity against biofilms formed on polystyrene 96-well plates, 24 h exposure, resazurin", "type": "cell-based", "settings": "polystyrene plate, 24 h exposure in MHB II", "procedure": "as §4, §5, §6, §7, §8"}, "[12]": {"system": "Pseudomonas aeruginosa ATCC 9027 biofilm", "assay": "Activity against biofilms formed on polystyrene 96-well plates, 24 h exposure, resazurin", "type": "cell-based", "settings": "lowest concentration reducing metabolic activity by at least 50 ± 5%; polystyrene plate, 24 h exposure in MHB II, resazurin", "procedure": "as §4, §5, §6, §7, §8"}, "[13]": {"settings": "lowest concentration reducing metabolic activity by at least 50 ± 5%"}, "[14]": {"settings": "lowest concentration reducing metabolic activity by at least 90 ± 5%, mean of nine results"}}, "data": [{"substance": "(C10)2-KKKK-NH2 [Lipopeptide]", "values": [{"measurement": "concentration permanently removing biofilm from CLs", "setting": "[1]", "result": 16, "unit": "mg/L"}, {"measurement": "toxicity towards human cells in vitro", "setting": "[2]", "result": "does not exhibit toxicity"}, {"measurement": "concentration reducing metabolic activity of bacteria by at least 90%", "setting": "[3]", "result": 16, "unit": "mg/L"}, {"measurement": "concentration permanently removing biofilm from CLs", "setting": "[4]", "result": 16, "unit": "mg/L"}, {"measurement": "regrowth of bacterial population after removal", "setting": "[5]", "result": "fully restored"}, {"measurement": "regrowth of bacterial population after removal", "setting": "[6]", "result": "ca. 50%"}, {"measurement": "effect on biofilm after removal of the agent", "setting": "[7]", "result": "promoted bacterial growth"}, {"measurement": "reduction in the metabolic activity", "setting": "[8]; SA biofilm on polystyrene, 24 h exposure, 32 mg/L and higher", "result": "over 90%"}, {"measurement": "MBEC 50", "setting": "[8]; lowest concentration reducing metabolic activity by at least 50 ± 5%, polystyrene plate, 24 h exposure in MHB II, resazurin", "result": 8, "unit": "mg/L"}, {"measurement": "MBEC 90", "setting": "[8]; lowest concentration reducing metabolic activity by at least 90 ± 5%, polystyrene plate, 24 h exposure in MHB II, resazurin, mean of nine results", "result": 32, "unit": "mg/L"}, {"measurement": "MBEC 50", "setting": "[9]; [13]", "result": 16, "unit": "mg/L"}, {"measurement": "MBEC 90", "setting": "[9]; [14]", "result": 16, "unit": "mg/L"}, {"measurement": "MBEC 50", "setting": "[10]; [13]", "result": 16, "unit": "mg/L"}, {"measurement": "MBEC 90", "setting": "[10]; [14]", "result": 32, "unit": "mg/L"}, {"measurement": "MBEC 50", "setting": "[11]; [13]", "result": 64, "unit": "mg/L"}, {"measurement": "MBEC 90", "setting": "[11]; [14]", "result": 64, "unit": "mg/L"}, {"measurement": "MBEC 50", "setting": "[12]", "result": 64, "unit": "mg/L"}]}]}
